Measurements published in patent US20200345008A1, “Increased grape yields with brassinosteroid application” (priority 2019, published 2020).

How the values were obtained:
[1] = tested on: grapes (var. Scarlet Royal); assay: Experiment 2: HBR spray application on Scarlet Royal grapes; type: in vivo; conditions: for berry hue / cluster color / soluble solids: evaluations Days 54-97; for ripening responses: ethephon standard treatment (Day 45), versus untreated check
Source text: Homobrassinolide (HBR) was applied on grapes (var. Scarlet Royal) at late bloom (Day 0), or at late bloom (Day 0) and again at approximately 1 week after berry set (Day 7). Grapes were approximately 3 mm in diameter at Day 0 and 6 mm in diameter at Day 7. HBR was applied at rates of 0.5 ppm/aiA, 1.0 ppm/aiA, and 2.0 ppm/aiA. Spray applications were made using a backpack mistblower to simulate commercial airblast applications at 100 gpa. Controls were an untreated group, and a group that received the standard treatment with Ethephon approximately two weeks after color break (Day 45). Evaluations were made at Days 54, 66, 75, 82, 90, and 97. All treated groups also received Latron B1956 which was added to each tank mix as a surfactant (0.125% v/v). Soluble solids, cluster color, and berry hue were enhanced by HBR and the ethephon standard treatment. […] Results are illustrated in Table 3 (FIG. 4).

[2] = tested on: grapes of the variety Flame Seedless; type: in vivo
Source text: Treatment (HBR) was twice applied to grapes of the variety Flame Seedless. Treatments consisted of either HBR or ProGibb (ProGibb 4%, a plant growth regulator commonly used on table grapes for berry thinning and/or increasing berry size). At the first application (Day 0) the grapes were approximately 3 mm in diameter. The second application was seven days later (Day 7) when the grapes were approximately 6 mm in diameter. The HBR was applied with a backpack mist blower at a rate if 100 gallons per acre. Grapes were evaluated for Cluster Color Rating and Cluster Color Intensity (Hue) on about Day 65 by comparing test subjects with the control of condition 1. The same data set was analyzed for berry weight, berry firmness, Brix units, and phytotoxicity.

[3] = tested on: grapes; conditions: Lenahan et al., 2006; cited from earlier work
[4] = HBR on Day 0 at 2.5 ppm/aiA, versus control, evaluated about Day 65
[5] = two applications, or single application of 1.0 or 2.0 ppm/aiA, versus single application of 0.5 ppm/aiA HBR

| SMILES | berry hue ([1]; Scarlet Royal) | cluster color ([1]; Scarlet Royal) | soluble solids ([1]; Scarlet Royal) | crop injury ([1]; all treatments, Scarlet Royal) | ripening responses ([1]; double spray of 2 ppm ai HBR) | degrees Brix of the grapes ([2]; HBR on Day 0) | color intensity per reddish cluster [2, 4] | percentage of clusters per plot that were noticeably reddish [2, 4] | color intensity within each identified reddish cluster ([2]; HBR treatment, versus control) | percentage of reddish grapes within each identified reddish cluster ([2]; HBR treatment, versus control) | phytotoxicity ([2]; in vivo) | efficacy ranking of treatments ([1]; double spray of 2 ppm ai HBR, compared to the ethephon standard treatment) | crop injury ([1]; in vivo) | rate response ([1]; single spray timing treatments (0.5, 1.0, 2.0 ppm/aiA) versus untreated check) | hue [1, 5] | percentages of clusters of color [1, 5] | soluble solids and Brix degrees [1, 5] | firmness of grapes [3] |
| --- | --- | --- | --- | --- | --- | --- | --- | --- | --- | --- | --- | --- | --- | --- | --- | --- | --- | --- |
| O=P(O)(O)CCCl [ethephon, Ethephon, reference compound] | enhanced | enhanced | enhanced | No crop injury was observed | significantly more effective than the untreated check | – | – | – | – | – | – | – | – | – | – | – | – | – |
| CC[C@@H](C(C)C)C(O)C(O)[C@@H](C)[C@H]1CC[C@H]2[C@@H]3COC(=O)[C@H]4C[C@H](O)[C@H](O)C[C@]4(C)[C@H]3CC[C@]12C (stereo in doubt) [HBR, homobrassinolide] | enhanced | enhanced | enhanced | – | significantly more effective than the untreated check | tended to increase | more intense color per reddish cluster than control | increased the percentage of clusters per plot that were noticeably reddish | increased the color intensity | increased the percentage of reddish grapes | no observed phytotoxicity | most efficacious treatment | No crop injury was observed | positive rate response | greater hue | increased percentages of clusters of color | increased soluble solids and Brix degrees | – |
| C=C1C[C@]23C[C@@]1(O)CC[C@H]2[C@@]12C=C[C@H](O)[C@@](C)(C(=O)O1)[C@H]2[C@@H]3C(=O)O [GA3, gibberellic acid] | – | – | – | – | – | – | – | – | – | – | – | – | – | – | – | – | – | increase firmness |
